Assay results as given in ChEMBL document CHEMBL2331194, “Ligerin, an antiproliferative chlorinated sesquiterpenoid from a marine-derived Penicillium strain” (J Nat Prod, 2013).

Key:
[1] = Antiproliferative activity against rat OSRGA cells assessed as inhibition of cell viability after 72 hrs by XTT assay; type: functional, cell-based
[2] = Antiproliferative activity against mouse POS1 cells assessed as inhibition of cell viability after 72 hrs by XTT assay; type: functional, cell-based; conditions: POS1, 72 h
[3] = Antiproliferative activity against mouse L929 cells assessed as inhibition of cell viability at 60 to 2400 nM after 72 hrs by XTT assay; type: cell-based; set-up: dose or concentration left out as unconfirmed
[4] = Antiproliferative activity against rat AT6-1 cells assessed as inhibition of cell viability at 60 to 2400 nM after 72 hrs by XTT assay; type: functional
[5] = Antiproliferative activity against rat OSRGA cells assessed as inhibition of cell viability at 60 to 2400 nM after 72 hrs by XTT assay; type: functional
L929 = assay: cells; conditions: Mus musculus, L929, 72 h
Description: Antiproliferative activity against mouse L929 cells assessed as inhibition of cell viability after 72 hrs by XTT assay

cells = conditions: Rattus norvegicus, 72 h
Description: Antiproliferative activity against rat AT6-1 cells assessed as inhibition of cell viability after 72 hrs by XTT assay

KB = assay: cells; conditions: Homo sapiens, 72 h
Description: Antiproliferative activity against human KB cells assessed as inhibition of cell viability after 72 hrs by MTT assay

Row | Compound | IC50 [1] [nM] | IC50 [2] [nM] | inhibition at 72 h [3] [%] | inhibition (INH) [4] [%] | inhibition (INH) [5] [%] | IC50 (L929) [nM] | IC50 (cells) [nM] | IC50 (KB) [nM]
1 | COc1cccc2c1C(=O)c1c(O)c3c(c(O)c1C2=O)C[C@@](O)(C(=O)CO)C[C@@H]3O[C@H]1C[C@H](N)[C@H](O)[C@H](C)O1 [DOXORUBICIN] | 93 | 43 |  |  |  |  |  | 
2 | CO[C@@H]1[C@H](OC(=O)CCC(=O)O)CC[C@](O)(CCl)[C@H]1[C@@]1(C)O[C@@H]1CC=C(C)C [LIGERIN] | > 2400 | 117 | 35 | 20 | 22 | > 2400 | > 2400 | > 478000
3 | C=C(C)C1(O)OC(=O)C=C1OC (centres undefined) [PENICILLIC ACID] |  | 7800 |  |  |  | 12900 | 29400 | > 100000
